Measurements taken from patent EP4813993A1, “COMPOUND, PREPARATION METHOD THEREFOR, AND USE THEREOF” (Sichuan Kelun Pharmaceutical Research Institute Co., Ltd., priority 2023, dated 2025).
pIC50: −log10 of the molar value.

How the values were obtained:
incision pain model [1] = assay: Incision pain model in ICR mice, Von Frey test; format: in vivo; conditions: 50 mg/kg single dose, Mean + SEM, n = 10
[2] = Pharmacokinetic study in ICR mice; format: in vivo; conditions: mouse
Protocol: Experimental Example 3: Pharmacokinetic study of compounds in ICR mice
(§1) Experimental animals: ICR mice, male, 6-8 weeks old.
(§2) Compound preparation: 5% (final preparation volume) of DMSO was added to dissolve the test compound, and then 10% (final preparation volume) of Cremophor EL and 85% Saline were sequentially added.
The injection group was given free access to food and water. The oral group was fasted overnight (> 12 h) with free access to water, and was fed 4 h after administration. Blood samples were collected from the jugular vein of ICR mice at the following time points: 5 min, 15 min, 0.5 h, 1 h, 2 h, 4 h, 8 h, and 24 h after injection administration; 15 min, 0.5 h, 1 h, 2 h, 4 h, 6 h, 8 h, and 24 h after oral administration. The collected blood samples were anticoagulated, placed in an ice bath, and then centrifuged for 5 min to separate plasma. The plasma was stored at -70 °C for analysis.
Sample test: The concentrations of the designated compound drugs in plasma were determined by the LC-MS/MS method; the main pharmacokinetic parameters were calculated using the Winnolin 8.3 non-compartmental model. Pharmacokinetic test results of some compounds of the present disclosure in ICR mice

incision pain model [3] = assay: Incision pain model in ICR mice, Von Frey test; format: in vivo; conditions: Mean + SEM, n = 10; for PWT 50% value (g) Post-surgery, Preadministration / PWT 50% value (g) Pre-surgery: 50 mg/kg group; for PWT 50% value (g) Post-surgery, Preadministration: baseline before administration; for PWT 50% value (g) Pre-surgery: baseline before surgery; for PWT 50% value (g) 0.5 h / PWT 50% value (g) 2 h / PWT 50% value (g) 4 h: 50 mg/kg single dose; for PWT 50% value (g) 0.5 h: 0.5 h after administration; for PWT 50% value (g) 2 h: 2 h after administration; for PWT 50% value (g) 4 h: 4 h after administration
Protocol: Experimental Example 6: Pharmacodynamic effect study of compounds in incision pain model in ICR mice Experimental animals: ICR mice, male, 28-35 g.
as §2
A plantar incision pain model was established in mice via surgery before the administration and test. Mice were placed in an anesthesia induction chamber and given 3%-4% isoflurane for anesthesia induction. After the anesthesia induction, a breathing mask was applied, and the isoflurane concentration was adjusted to 1%-2% to prevent the mice from suffering pain during the surgery. Each mouse was placed in a supine position, and the surgical site was disinfected with alcohol and iodophor. Under sterile conditions, a 0.5 cm longitudinal incision was made on the left hind paw surface, 0.2 cm away from the heel, extending toward the toes. The skin and fascia were incised; the plantar muscle was separated, slightly lifted, and longitudinally incised. The skin was then sutured with 5-0 sutures and disinfected.
2. Administration and test
The Von Frey test was performed once before the surgery. On the second day after animal modeling, the test was repeated, and animals meeting the baseline requirements were selected for enrollment. The animals were randomly grouped based on the 50% PWT values, with 10 animals per group. Administration was performed under a double-blind test protocol. The 50% PWT of the animals was measured separately before administration (baseline) and at 0.5 h, 2 h, and 4 h after administration, and a single dose was administered. The model control group was given normal saline, while the compound groups were given the compounds according to the administration doses in the table below.

Nav1.8 channels = molecular target: T1, Nav1.8 channels (Homo sapiens, UniProt Q9Y5Y9); assay: Manual patch-clamp, current of stably overexpressed Nav1.8 channels (resting state voltage program); format: cell-based; conditions: for inhibition at 0.001 µM: concentration of 1 nM, read-out: Inhibition rate %
T1 construct: expressed in transfected cells
T1 sequence (Q9Y5Y9 whole entry): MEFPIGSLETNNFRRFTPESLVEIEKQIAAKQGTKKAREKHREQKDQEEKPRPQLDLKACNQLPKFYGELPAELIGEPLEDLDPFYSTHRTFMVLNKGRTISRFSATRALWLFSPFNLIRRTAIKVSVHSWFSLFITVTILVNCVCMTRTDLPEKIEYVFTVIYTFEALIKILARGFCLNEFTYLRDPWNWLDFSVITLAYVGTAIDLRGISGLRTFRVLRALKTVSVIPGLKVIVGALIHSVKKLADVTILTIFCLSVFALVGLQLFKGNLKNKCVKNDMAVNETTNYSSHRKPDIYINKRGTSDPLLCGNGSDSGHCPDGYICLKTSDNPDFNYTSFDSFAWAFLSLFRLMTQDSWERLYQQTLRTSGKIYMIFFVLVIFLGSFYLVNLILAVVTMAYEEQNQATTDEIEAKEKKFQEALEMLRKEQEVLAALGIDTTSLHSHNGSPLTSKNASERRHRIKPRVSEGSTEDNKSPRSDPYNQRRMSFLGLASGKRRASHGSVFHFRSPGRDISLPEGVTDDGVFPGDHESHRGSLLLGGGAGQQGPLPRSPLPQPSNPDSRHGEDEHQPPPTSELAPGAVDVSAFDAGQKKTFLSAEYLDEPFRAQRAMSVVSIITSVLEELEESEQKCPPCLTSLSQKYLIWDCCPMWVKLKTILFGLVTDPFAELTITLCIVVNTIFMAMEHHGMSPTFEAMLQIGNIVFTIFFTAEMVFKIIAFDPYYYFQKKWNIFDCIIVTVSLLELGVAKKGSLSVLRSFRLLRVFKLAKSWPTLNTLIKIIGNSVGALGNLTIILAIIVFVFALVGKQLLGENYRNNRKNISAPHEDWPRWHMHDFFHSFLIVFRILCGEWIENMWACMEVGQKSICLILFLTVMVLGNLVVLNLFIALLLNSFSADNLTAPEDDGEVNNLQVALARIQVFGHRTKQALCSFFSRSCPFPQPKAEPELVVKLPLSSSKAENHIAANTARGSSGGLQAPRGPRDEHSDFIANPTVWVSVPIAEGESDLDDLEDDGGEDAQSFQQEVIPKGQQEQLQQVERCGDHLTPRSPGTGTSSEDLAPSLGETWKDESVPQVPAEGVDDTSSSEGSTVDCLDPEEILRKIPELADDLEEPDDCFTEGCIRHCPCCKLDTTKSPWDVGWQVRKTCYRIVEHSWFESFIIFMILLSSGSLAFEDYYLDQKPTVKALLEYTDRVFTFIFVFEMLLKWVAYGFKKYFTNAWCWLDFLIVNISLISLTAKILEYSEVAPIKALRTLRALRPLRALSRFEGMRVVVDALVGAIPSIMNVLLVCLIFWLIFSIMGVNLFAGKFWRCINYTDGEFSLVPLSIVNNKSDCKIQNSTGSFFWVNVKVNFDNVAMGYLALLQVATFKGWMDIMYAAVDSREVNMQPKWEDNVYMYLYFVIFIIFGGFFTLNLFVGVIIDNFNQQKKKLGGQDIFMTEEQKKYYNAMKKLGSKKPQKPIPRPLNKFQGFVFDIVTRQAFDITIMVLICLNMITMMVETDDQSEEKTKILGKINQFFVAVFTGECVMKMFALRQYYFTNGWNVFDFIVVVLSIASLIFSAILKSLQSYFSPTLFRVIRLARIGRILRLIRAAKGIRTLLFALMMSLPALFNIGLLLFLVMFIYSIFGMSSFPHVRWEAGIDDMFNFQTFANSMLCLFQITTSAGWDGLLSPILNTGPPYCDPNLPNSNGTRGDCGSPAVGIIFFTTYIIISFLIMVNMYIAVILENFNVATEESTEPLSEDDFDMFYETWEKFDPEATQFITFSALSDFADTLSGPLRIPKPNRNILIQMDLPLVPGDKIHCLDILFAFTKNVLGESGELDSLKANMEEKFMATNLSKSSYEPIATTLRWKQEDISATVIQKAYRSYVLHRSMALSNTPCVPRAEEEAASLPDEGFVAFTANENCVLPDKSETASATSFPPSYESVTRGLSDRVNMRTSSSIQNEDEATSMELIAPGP
In short: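 Whole-cell manual patch clamp on cells stably overexpressing Nav1.8, held at -120 mV and stepped to 0 mV for 50 ms every 20 s (resting-state protocol). Compounds were perfused in ascending concentrations, each for 5 min or until stable; block of peak current was calculated at steady state.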

[4] = Tissue distribution study (dorsal root ganglia) in SD rats; format: in vivo; conditions: male, rat, oral administration 10 mg/kg
Protocol: Experimental Example 5: Tissue distribution study of compounds in SD rats
Experimental animals: SD rats, male, 6-8 weeks old.
as §2
(§3) Experimental design: The test compounds were administered to SD rats as a single dose via oral administration (10 mg/kg; n = 3, 3 time points). Blood samples were collected at 0.5 h, 2 h, and 6 h after oral administration, followed by sacrifice of the animals. Dorsal root ganglia were collected, rinsed with ice-cold normal saline to remove residual blood, blotted dry with absorbent paper, and stored at -70 °C for analysis.
Sample test: The concentrations of the designated compound drugs in plasma and tissues were determined by the LC-MS/MS method.

[5] = Tissue distribution study (dorsal root ganglia) in ICR mice; format: in vivo; conditions: male, mouse, oral administration 20 mg/kg
Protocol: Experimental Example 4: Tissue distribution study of compounds in ICR mice
as §1, §2
as §3, with “ICR mice” for “SD rats”, “(20” for “(10”, “0.25” for “0.5”, “12” for “6”, “ganglia (DRG)” for “ganglia”
Sample test: The concentrations of the compound drugs in dorsal root ganglia were determined by the LC-MS/MS method.

[6] = tested on: acetic acid writhing model; assay: Mouse acetic acid writhing model; format: in vivo, ICR mice
Protocol: Experimental Example 11: Pharmacodynamic effect study of compounds in mouse acetic acid writhing model
Experimental animals: ICR mice, male, 20-24 g.
Compound preparation: 5% (final preparation volume) of DMSO was added to dissolve the test compound, and then 10% (final preparation volume) of Cremophor EL and 85% Saline were sequentially added; an appropriate amount of Etoricoxib was weighed, 5% (final preparation volume) of DMSO was added to dissolve the test compound, and then 5% (final preparation volume) of HS-15 and 90% Saline were sequentially added.
• 1. The mice were randomly grouped based on the body weight for model establishment, with 10 animals per group. A 0.8% (v/v) acetic acid solution was intraperitoneally injected at an injection volume of 10 mL/kg. • 2. Administration and test
Administration was performed 60 min before modeling. After the acetic acid solution was injected, the number of writhing responses in mice was observed. […] The number of writhing responses was observed and recorded during two intervals: 0-15 min and 15-30 min, with a total observation duration of 30 min. Inhibition rate = (number of writhing responses in control group - number of writhing responses in administration group)/number of writhing responses in control group × 100%. The model control group was given normal saline, the positive control group 1 was given etoricoxib at 20 mg/kg, the positive control group 2 was given VX-548 at 50 mg/kg, and the remaining groups were given the compounds of the present disclosure according to the administration doses in the table below.

[7] = male, plasma, Oral administration, 10 mg/kg
[8] = male, plasma, iv, Injection (i.v.), 2 mg/kg

Row | SMILES | AUC(0-inf) [2, 7] | AUC(0-inf) [2, 8] | pIC50 (Nav1.8 channels) | concentration at 0.5 h ([4]; Time 0.5 h) | concentration at 2 h ([4]; Time 2 h) | concentration at 6 h ([4]; Time 6 h) | inhibition at 0.001 µM (Nav1.8 channels) | AUC(0-inf) ([2]; in vivo, Oral administration, 10 mg/kg) | AUC(0-inf) ([2]; in vivo, iv, Injection (i.v.), 2 mg/kg) | PWT 50% value (g) AUC0-8h (incision pain model [1]) | PWT 50% value (g) Post-surgery, Preadministration (incision pain model [3]) | PWT 50% value (g) Pre-surgery (incision pain model [3]) | PWT 50% value (g) 0.5 h (incision pain model [3]) | PWT 50% value (g) 2 h (incision pain model [3]) | PWT 50% value (g) 4 h (incision pain model [3]) | concentration at 0.25 h [5] | concentration at 2 h [5] | concentration at 12 h [5] | Number of writhing responses ([6]; ICR mice, Dose 50 mg/kg, 60 min before 0.8% acetic acid i.p., 30 min observation, Mean + SD, n = 10) | inhibition of the writhing effect compared with VX-548 ([6]; mouse acetic acid writhing model)
1 | COc1c([C@@H]2C[C@](C)(C(F)(F)F)SC2C(=O)Nc2ccnc([N+](=O)[O-])c2)ccc(F)c1F (stereo in doubt) [a-7-A, (2S,3S,5R)-3-(3,4-difluoro-2-methoxyphenyl)-5-methyl-N-(2-nitropyridin-4-yl)-5-(trifluoromethyl)tetrahydrothiophene-2-carboxamide] | 10200 ng·h/mL | 2090 ng·h/mL | 9.82 | 115 ng/g | 768 ng/g | 557 ng/g | – | – | – | 3.62 ± 1.28 g·h | 0.27 ± 0.13 g | 1.43 ± 0.43 g | 0.47 ± 0.16 g | 0.72 ± 0.35 g | 0.47 ± 0.25 g | – | – | – | – | –
2 | COc1c([C@@H]2C[C@](C)(C(F)(F)F)S[C@H]2C(=O)Nc2ccn3nncc3c2)ccc(F)c1F [Compound 246-A, (2R,3S,5R)-3-(3,4-difluoro-2-methoxyphenyl)-5-methyl-N-((1,2,3)triazolo(1,5-a)pyridin-5-yl)-5-(trifluoromethyl)tetrahydrothiophene-2-carboxamide] | 2580 ng·h/mL | 1400 ng·h/mL | – | – | – | – | 77.8% | – | – | 2.53 ± 0.82 g·h | 0.24 ± 0.03 g | 1.4 ± 0.17 g | 0.32 ± 0.12 g | 0.33 ± 0.16 g | 0.4 ± 0.27 g | – | – | – | – | –
3 | COc1c([C@@H]2C[C@](C)(C(F)(F)F)S[C@H]2C(=O)Nc2ccnc(N=[N+]=[N-])c2)ccc(F)c1F [a-20-A, (2R,3S,5R)-N-(2-azidopyridin-4-yl)-3-(3,4-difluoro-2-methoxyphenyl)-5-methyl-5-(trifluoromethyl)tetrahydrothiophene-2-carboxamide] | 15400 ng·h/mL | 1990 ng·h/mL | 12.00 | – | – | – | – | – | – | 3.48 ± 0.82 g·h | 0.29 ± 0.09 g | 1.14 ± 0.21 g | 0.39 ± 0.14 g | 0.49 ± 0.18 g | 0.57 ± 0.22 g | 1040 ng/g | 5900 ng/g | 1910 ng/g | 17 ± 11 | better than VX-548
4 | COc1c([C@@H]2C[C@](C)(C(F)(F)F)S[C@H]2C(=O)Nc2cccc(S(=O)(=O)N=[N+]=[N-])c2)ccc(F)c1F [a-65-A, 3-((2R,3S,5R)-3-(3,4-difluoro-2-methoxyphenyl)-5-methyl-5-(trifluoromethyl)tetrahydrothiophene-2-carboxamido)benzenesulfonyl azide] | – | – | 10.77 | – | – | – | – | – | – | 4.87 ± 0.97 g·h | 0.22 ± 0.02 g | 1.13 ± 0.08 g | 0.38 ± 0.16 g | 0.43 ± 0.17 g | 0.51 ± 0.2 g | – | – | – | – | –

Now from value to compound, other results behind:

Row | AUC(0-inf) [2, 7] | AUC(0-inf) [2, 8] | pIC50 (Nav1.8 channels) | concentration at 0.5 h ([4]; Time 0.5 h) | concentration at 2 h ([4]; Time 2 h) | concentration at 6 h ([4]; Time 6 h) | inhibition at 0.001 µM (Nav1.8 channels) | AUC(0-inf) ([2]; in vivo, Oral administration, 10 mg/kg) | AUC(0-inf) ([2]; in vivo, iv, Injection (i.v.), 2 mg/kg) | SMILES | PWT 50% value (g) AUC0-8h (incision pain model [1]) | PWT 50% value (g) Post-surgery, Preadministration (incision pain model [3]) | PWT 50% value (g) Pre-surgery (incision pain model [3]) | PWT 50% value (g) 0.5 h (incision pain model [3]) | PWT 50% value (g) 2 h (incision pain model [3]) | PWT 50% value (g) 4 h (incision pain model [3]) | concentration at 0.25 h [5] | concentration at 2 h [5] | concentration at 12 h [5] | Number of writhing responses ([6]; ICR mice, Dose 50 mg/kg, 60 min before 0.8% acetic acid i.p., 30 min observation, Mean + SD, n = 10) | inhibition of the writhing effect compared with VX-548 ([6]; mouse acetic acid writhing model)
5 | 34100 ng·h/mL | 9490 ng·h/mL | – | – | – | – | 94.1% | – | – | COc1c([C@@H]2C[C@](C)(C(F)(F)F)S[C@H]2C(=O)Nc2ccc(F)c(S(N)(=O)=O)c2)ccc(F)c1F [Compound 233-A, (2R,3S,5R)-3-(3,4-difluoro-2-methoxyphenyl)-N-(4-fluoro-3-sulfamoylphenyl)-5-methyl-5-(trifluoromethyl)tetrahydrothiophene-2-carboxamide] | 3.21 ± 1.35 g·h | 0.22 ± 0.02 g | 1.54 ± 0.4 g | 0.42 ± 0.34 g | 0.62 ± 0.32 g | 0.41 ± 0.21 g | 400 ng/g | 2850 ng/g | 489 ng/g | – | –
6 | – | – | – | – | – | – | – | 8130 ng·h/mL | 2030 ng·h/mL | COc1c([C@@H]2C[C@](C)(C(F)(F)F)S[C@H]2C(=O)Nc2ccc3c(c2)S(=O)(=O)NC3)ccc(F)c1F [Compound a-37-A, (2R,3S,5R)-3-(3,4-difluoro-2-methoxyphenyl)-N-(1,1-dioxide-2,3-dihydrobenzo[d]isothiazol-6-yl)-5-methyl-5-(trifluoromethyl)tetrahydrothiophene-2-carboxamide] | 2.71 ± 0.39 g·h | 0.24 ± 0.03 g | 1.43 ± 0.33 g | 0.33 ± 0.12 g | 0.55 ± 0.18 g | 0.32 ± 0.1 g | – | – | – | – | –
